Twelve molecules from US9549965B2, “Pharmaceutical composition for treating a microbial infection” (HELPERBY THERAPEUTICS LIMITED, priority 2010, dated 2017) can be followed below.

≈ marks a conversion by molar mass, not a printed value. Counter-ions that a name gives are not always drawn. Like-named read-outs stand apart in the source and are kept apart here.

The subject of test [1] is stationary phase S. aureus. As to the kind of experiment: Bactericidal activity against stationary phase S. aureus (CFU counts). In kind it is cell-based, Staphylococcus aureus. To be noted: for log reduction at 6.25 µg/mL / log reduction at 12.5 µg/mL / log reduction at 25 µg/mL: Staphylococcus aureus, read-out: Log Kill. As for the experimental part:
Staphylococcus aureus (Oxford strain); Gram positive; Reference strain.
(§1) Bacteria were grown in 10 ml of nutrient broth (No. 2 (Oxoid)) overnight at 37° C., with continuous shaking at 120 rpm. The overnight cultures were diluted (1000×) in 100 ml of growth medium and then incubated without shaking for 10 days. Viability of the bacteria was estimated by colony forming unit (CFU) counts at 2 hour intervals at the first 24 hours and at 12-24 hours afterwards. From serial 10-fold dilutions of the experimental cultures, 100 μl samples were added to triplicate plates of nutrient agar plates (Oxoid) and blood agar plates (Oxoid). Colony forming units (CFU) were counted after incubation of the plates at 37° C. for 24 hours.
(§2) Cultures incubated for more than 24 hours are in the stationary phase. For drug screening, 5-6 day old stationary phase cultures were used.
(§3) Different concentrations of each test compound were incubated with stationary phase cultures (5-6 day cultures) in 96 well plates for 24 or 48 hours. Bactericidal activity was then determined by taking CFU counts of the resulting cultures, as described above.

Another test has as its system stationary phase E. coli. As to the kind of experiment: Bactericidal activity against stationary phase E. coli (CFU counts). To be noted: for log reduction at 6.25 µg/mL / log reduction at 12.5 µg/mL / log reduction at 25 µg/mL: Escherichia coli, read-out: Log kill. In kind it is cell-based, Escherichia coli. On the procedure:
(§4) Escherichia coli K12; Gram negative; Reference strain.
as §1, §2, §3

Another test deals with log phase E. coli. As to the kind of experiment: MIC against log phase E. coli. The format is cell-based, Escherichia coli. On the procedure:
as §4
The above-described overnight cultures were diluted (1000×) with iso-sensitest broth. The cultures were then incubated at 37° C. with shaking for 1-2 hours to reach log CFU 6, which served as log phase cultures.
The bactericidal activity of the drugs against log phase cultures were determined by minimal inhibitory concentration (MIC) of the drugs, which is defined as the lowest concentration which inhibits visible growth. Different concentrations of each test compound were incubated with the log-phase cultures in 96 well plates for 24 hours. Bactericidal activity was then examined by taking a spectrophotometer reading (using a plate reader) at 405 nm.

The test system of another test is persistent E. coli. As to the kind of experiment: Bactericidal activity against persistent E. coli selected by gentamicin. In kind it is cell-based, Escherichia coli. To be noted: for log reduction at 6.25 µg/mL / log reduction at 12.5 µg/mL / log reduction at 25 µg/mL: Escherichia coli, read-out: Log Kill. On the procedure: as §4
An antibiotic (gentamicin) was added to 5-6 day stationary-phase cultures to the final concentration of 50 to 100 μg/ml for 24 hours. After 24 hours of antibiotic treatment, the cells are washed 3 times with phosphate buffered saline (PBS), and then resuspended in PBS. The surviving bacterial cells are used as persisters. Viability is estimated by CFU counts. The persisters were then used in measurements of bactericidal activity for test compounds.
Different concentrations of each test compound were incubated with the (persister) cell suspension in 96 well plates for various periods of time (24 and 48 hours). Bactericidal activity was then determined by taking CFU counts of the resulting cultures, as described above.

In test [2] the test system is NDM-1 Klebsiella pneumoniae. As to the kind of experiment: Chequerboard analysis with colistin against NDM-1 Klebsiella pneumoniae. In kind it is cell-based.
Setting [3] is: Escherichia coli, read-out: MIC.

One may read the MIC as the lowest concentration that inhibits growth of the organism.

For `N.N.O=C([O-])C1(C(=O)[O-])CCC1.[Pt+2]` [Carboplatin], the “Log Kill” value in test [1] (6.25 μg/ml) came out at 0.92; in test [1] (12.5 μg/ml) it was 6.03; in test [1] (25 μg/ml) it was 6.03; in the test on stationary phase E. coli (6.25 μg/ml) it was 6.14; in the test with stationary phase E. coli (12.50 μg/ml) it was 6.14; in the test on stationary phase E. coli (25.00 μg/ml) it was 6.14. In addition, the “Log Kill” value turned out to be 1.55 in the test with persistent E. coli (6.25 μg/ml), 2.55 in the test on persistent E. coli (12.5 μg/ml) and 6.21 with persistent E. coli (25 μg/ml). Besides, the MIC result against log phase E. coli is given as “— (— signifies MIC higher than 50 μg/ml)”.
With `CN(C)CC/C=C1/c2ccccc2Sc2ccc(Cl)cc21` [Chlorprothixene hydrochloride], the log reduction at 6.25 µg/mL in test [1] (6.25 μg/ml) worked out at 1.83; in the test with persistent E. coli (6.25 μg/ml), 0.02. Moreover, the log reduction at 12.5 µg/mL in test [1] (12.5 μg/ml) is 6.15; with persistent E. coli (12.5 μg/ml), 0.03. The log reduction at 25 µg/mL in test [1] (25 μg/ml) came to 6.15; in the test with persistent E. coli (25 μg/ml), 6.21. The MIC with log phase E. coli (setting [3]) came to 20 µg/mL. The spectrophotometer reading in test [2] (chlorprothixene hydrochloride 0.25 mg/L alone) is recorded as 1.14; in test [2] (chlorprothixene hydrochloride 0.5 mg/L alone), 1.15; in test [2] (chlorprothixene hydrochloride 1 mg/L alone), 1.13; in test [2] (chlorprothixene hydrochloride 2 mg/L alone) it was 1.12; in test [2] (chlorprothixene hydrochloride 4 mg/L alone), 1.12; in test [2] (chlorprothixene hydrochloride 8 mg/L alone), 1.13. Further, the spectrophotometer reading in test [2] (chlorprothixene hydrochloride 16 mg/L alone) turned out to be 1.10; in test [2] (chlorprothixene hydrochloride 32 mg/L alone) it was 1.05; in test [2] (chlorprothixene hydrochloride 64 mg/L alone), 0.70; in test [2] (chlorprothixene hydrochloride 128 mg/L alone), 0.62; in test [2] (chlorprothixene hydrochloride 256 mg/L alone) it was 0.40.
Consider `N.N.[Cl][Pt][Cl]` [Cisplatin], for which the “Log Kill” value in test [1] (6.25 μg/ml) came out at 6.03; in test [1] (12.5 μg/ml) it was 6.03; in test [1] (25 μg/ml), 6.03; in the test on stationary phase E. coli (6.25 μg/ml), 6.14; in the test with stationary phase E. coli (12.50 μg/ml), 6.14; in the test on stationary phase E. coli (25.00 μg/ml) it was 6.14. Besides, the “Log Kill” value in the test with persistent E. coli (6.25 μg/ml), in the test on persistent E. coli (12.5 μg/ml) and with persistent E. coli (25 μg/ml) was 6.21 in each case. For the same molecule, the minimum inhibitory concentration (MIC) result against log phase E. coli was “— (— signifies MIC higher than 50 μg/ml)”.
Take `CO[C@@]12[C@H](COC(N)=O)C3=C(C(=O)C(C)=C(N)C3=O)N1C[C@@H]1N[C@@H]12` [Mitomycin C]: the “Log Kill” value is reported as 6.15 in test [1] (6.25 μg/ml); 6.15 in test [1] (12.5 μg/ml); 6.15 in test [1] (25 μg/ml); 2.27 in the test with stationary phase E. coli (6.25 μg/ml); 6.14 in the test on stationary phase E. coli (12.50 μg/ml); 6.14 in the test with stationary phase E. coli (25.00 μg/ml). The “Log Kill” value in the test on persistent E. coli (6.25 μg/ml), with persistent E. coli (12.5 μg/ml) and in the test with persistent E. coli (25 μg/ml) was 6.21 in each case. In the test with log phase E. coli, this molecule registered an MIC of 0.3 µg/mL (≈ 0.897 µM).
Take `Cl.Cl.O=C1c2c(O)ccc(O)c2C(=O)c2c(NCCNCCO)ccc(NCCNCCO)c21` [Mitoxanthrone hydrochloride]: the Log Kill with stationary phase E. coli (6.25 μg/ml) turned out to be 6.14; with stationary phase E. coli (12.50 μg/ml) it was 6.14; in the test with stationary phase E. coli (25.00 μg/ml) it was 6.14; with persistent E. coli (6.25 μg/ml) it was 6.21; in the test on persistent E. coli (12.5 μg/ml) it was 6.21; in the test on persistent E. coli (25 μg/ml) it was 6.21. In addition, in the test on log phase E. coli, the MIC entry is listed as “— (— signifies MIC higher than 50 μg/ml)”.
In the case of `N=C1C=CC(=C(c2ccc(N)cc2)c2ccc(N)cc2)C=C1` [Pararosaniline pamoate], the log reduction at 6.25 µg/mL is 6.15 in test [1] (6.25 μg/ml), 1.9 in the test with stationary phase E. coli (6.25 μg/ml) and -0.01 in the test on persistent E. coli (6.25 μg/ml). The log reduction at 12.5 µg/mL in test [1] (12.5 μg/ml) came to 6.15; in the test on stationary phase E. coli (12.50 μg/ml), 6.14; in the test with persistent E. coli (12.5 μg/ml), 0.01. The log reduction at 25 µg/mL was determined as 6.15 in test [1] (25 μg/ml), 6.14 in the test with stationary phase E. coli (25.00 μg/ml) and 6.21 in the test on persistent E. coli (25 μg/ml). In addition, the minimum inhibitory concentration (MIC) in the test on log phase E. coli (setting [3]) amounted to 10 µg/mL.
In the case of `C1CCC(C(CC2CCCCN2)C2CCCCC2)CC1` (stereo not shown) [Perhexiline maleate], the log reduction at 6.25 µg/mL in test [1] (6.25 μg/ml) is 6.15; in the test with persistent E. coli (6.25 μg/ml) it was -0.01. Moreover, the log reduction at 12.5 µg/mL was determined as 6.15 in test [1] (12.5 μg/ml) and 0.04 with persistent E. coli (12.5 μg/ml). For the same molecule, the log reduction at 25 µg/mL was found to be 6.15 in test [1] (25 μg/ml) and 6.21 in the test with persistent E. coli (25 μg/ml). In addition, the MIC with log phase E. coli (setting [3]) worked out at 10 µg/mL.
For the molecule `C[n+]1cc2c3c(ccc2c2ccc4cc5c(cc4c21)OCO5)OCO3` [Sanguinarine sulfate], the log reduction at 6.25 µg/mL in test [1] (6.25 μg/ml) is 6.15; with stationary phase E. coli (6.25 μg/ml) it was -0.1; in the test on persistent E. coli (6.25 μg/ml), 0.04. Further, the values for the log reduction at 12.5 µg/mL (in test [1] (12.5 μg/ml); with stationary phase E. coli (12.50 μg/ml); with persistent E. coli (12.5 μg/ml)) were 6.15, 2.4 and 1.47, respectively. Also, the values for the log reduction at 25 µg/mL (in test [1] (25 μg/ml); in the test with stationary phase E. coli (25.00 μg/ml); with persistent E. coli (25 μg/ml)) were 6.15, 6.14 and 6.21, respectively. Further, in the test on log phase E. coli (setting [3]), the MIC was more than 50 µg/mL.
With `CSc1ccc2c(c1)N(CCC1CCCCN1C)c1ccccc1S2` (stereo not shown) [Thioridazine hydrochloride], the log reduction at 6.25 µg/mL in test [1] (6.25 μg/ml) stood at 6.03; in the test with stationary phase E. coli (6.25 μg/ml) it was 6.14; with persistent E. coli (6.25 μg/ml), 0.04. The log reduction at 12.5 µg/mL was determined as 6.03 in test [1] (12.5 μg/ml), 6.14 in the test with stationary phase E. coli (12.50 μg/ml) and 0.03 in the test on persistent E. coli (12.5 μg/ml). For the same molecule, the log reduction at 25 µg/mL in test [1] (25 μg/ml) came to 6.03; in the test with stationary phase E. coli (25.00 μg/ml), 6.14; with persistent E. coli (25 μg/ml), 6.21. Moreover, in the test with log phase E. coli (setting [3]), the MIC stood at 10 µg/mL. Besides, the spectrophotometer reading in test [2] (thioridazine hydrochloride 0.25 mg/L alone) was determined as 0.98; in test [2] (thioridazine hydrochloride 0.5 mg/L alone), 0.97; in test [2] (thioridazine hydrochloride 1 mg/L alone) it was 0.97; in test [2] (thioridazine hydrochloride 2 mg/L alone), 0.96; in test [2] (thioridazine hydrochloride 4 mg/L alone), 0.96; in test [2] (thioridazine hydrochloride 8 mg/L alone), 0.96. Further, the spectrophotometer reading in test [2] (thioridazine hydrochloride 16 mg/L alone) is 0.96; in test [2] (thioridazine hydrochloride 32 mg/L alone), 0.93; in test [2] (thioridazine hydrochloride 64 mg/L alone) it was 0.73; in test [2] (thioridazine hydrochloride 128 mg/L alone) it was 0.76; in test [2] (thioridazine hydrochloride 256 mg/L alone) it was 1.41.
For the molecule Bithionate sodium, the “Log Kill” value turned out to be 0.01 in test [1] (6.25 μg/ml); 6.15 in test [1] (12.5 μg/ml); 6.15 in test [1] (25 μg/ml); 0.01 with persistent E. coli (6.25 μg/ml); 0.03 with persistent E. coli (12.5 μg/ml); 6.21 in the test with persistent E. coli (25 μg/ml). This molecule also gave an MIC with log phase E. coli of 5 µg/mL.
Turning to Bleomycin, the Log Kill came to 2.22 in the test with stationary phase E. coli (6.25 μg/ml); 6.14 in the test with stationary phase E. coli (12.50 μg/ml); 6.14 in the test on stationary phase E. coli (25.00 μg/ml); 1.55 with persistent E. coli (6.25 μg/ml); 6.21 with persistent E. coli (12.5 μg/ml); 6.21 with persistent E. coli (25 μg/ml). Moreover, the minimum inhibitory concentration (MIC) in the test with log phase E. coli amounted to 0.15 µg/mL.
For the molecule Vitamin B12, in the test with log phase E. coli, the minimal inhibitory concentration (MIC) entry is “— (— signifies MIC higher than 50 μg/ml)”. In addition, the “Log Kill” value in the test with persistent E. coli (6.25 μg/ml) came to 0.03; with persistent E. coli (12.5 μg/ml) it was 6.21; in the test with persistent E. coli (25 μg/ml), 6.21.
